Reference: US20240336608A1, “IL4I1 INHIBITORS AND METHODS OF USE” (Merck Sharp & Dohme LLC, priority 2023, published 2024)

Biological target: T1, recombinant IL4I1 (Homo sapiens, UniProt Q96RQ9)
T1 construct: purchased R&D Systems 5684-AO-020
T1 sequence (Q96RQ9 22-567): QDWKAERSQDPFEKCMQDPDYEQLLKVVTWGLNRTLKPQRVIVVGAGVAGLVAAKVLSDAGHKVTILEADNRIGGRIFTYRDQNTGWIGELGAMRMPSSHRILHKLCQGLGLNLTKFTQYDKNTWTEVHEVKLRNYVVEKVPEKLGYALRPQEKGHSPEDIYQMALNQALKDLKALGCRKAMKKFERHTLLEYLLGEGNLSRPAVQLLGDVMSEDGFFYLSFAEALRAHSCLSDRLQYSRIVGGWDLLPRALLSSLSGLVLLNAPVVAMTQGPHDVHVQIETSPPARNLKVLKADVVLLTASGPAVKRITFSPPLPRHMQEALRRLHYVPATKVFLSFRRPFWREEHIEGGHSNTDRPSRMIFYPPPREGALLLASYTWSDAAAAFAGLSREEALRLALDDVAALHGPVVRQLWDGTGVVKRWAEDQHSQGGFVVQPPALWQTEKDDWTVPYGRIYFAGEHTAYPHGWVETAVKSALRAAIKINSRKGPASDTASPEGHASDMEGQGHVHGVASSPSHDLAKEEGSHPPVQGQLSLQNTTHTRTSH
Assay: IL4I1 Enzymatic Assay (Amplex Red/HRP coupled detection of H2O2, fluorescence)
Type: biochemical
Settings: 1 nM recombinant IL4I1; four-hour pre-incubation with compound; 1 mM each Phe, Tyr, Trp; ten-point titration
Description: Interleukin 4 inducible protein 1 (IL4I1) is an L-amino oxidase that catalyzes the oxidation of aromatic residues (Phe, Trp and Tyr): L-amino acid+H2O+O2→2-oxo acid+NH3+H2O2. Equal molar of H2O2 and the corresponding alpha-ketoacid are produced when IL4I1 and substrate are added. In this assay, the hydrogen peroxide generated by IL4I1 is then detected through a coupled reaction with Amplex Red (10-acetyl-3,7-dihydroxyphenoxazine) and […] (HRP) to produce Resorufin product that could be detected in the form of fluorescence signals. The assessment of the inhibitory effect of small molecules (EC50) on IL4I1 is measured by the effectiveness of the compounds to inhibit the production of H202.
Using this assay, the potency (EC50) of each compound was determined from a ten-point (1:3 serial dilution) titration curve using the following outlined procedure. To each well of a black flat-bottom Greiner (Cat #781076) 384 well-plate, 125 nL of compound (0.5% DMSO in final assay volume of 25 μL) was dispensed, followed by the addition of 12.5 μL of 1× assay buffer (50 mM Hepes 7.0 and 0.005% Tween20 (Sigma, Cat #P8341; low peroxide grade)) containing 2 nM of recombinant IL4I1 (R&D Systems, Cat #5684-AO-020). Plates were placed in an ambient temperature humidified chamber for a four-hour pre-incubation with compound. Subsequently, each reaction was initiated by the addition of 12.5 μL 1× assay buffer containing 2 mM of each aromatic amino acids (Phe/Tyr/Trp), 0.1 mM Amplex Red and 2 U/mL of HRP. The final reaction in each well of 25 μL consists of 1 nM of IL4I1, 1 mM of each residue (Phe, Tyr and Trp), 0.05 mM Amplex Red and 1 U/mL of HRP. It should be noted that the concentrations of Amplex Red and HRP used here are in excess such that the conversion of H2O2 to Resorufin product occurs instantaneously and non-rate limiting. Reactions were allowed to proceed for 120 minutes followed by fluorescence readout on a Spectramax with the following set parameters: 544 nm excitation/590 nm emission, 570 nm cutoff (EnVision is an alternative reader). Dose-response curves were generated by plotting percent effect (% inhibition; Y-axis) vs. Log10 compound concentrations (X-axis). EC50 values were calculated using a non-linear regression, four-parameters sigmoidal dose-response model and are shown in Table 16.

Structure (SMILES)	EC50
Cc1ccc(-n2cc(C(=O)NCc3nnc(-c4ccc(O)cc4)s3)nn2)c(C)n1 [Example 115, 1-(2,6-dimethylpyridin-3-yl)-N-((5-(4-hydroxyphenyl)-1,3,4-thiadiazol-2-yl)methyl)-1H-1,2,3-triazole-4-carboxamide]	36 nM
O=C(NCc1cc(-c2ccccc2)no1)c1cn(CC(F)(F)F)nn1 [Example 231, N-((3-phenylisoxazol-5-yl)methyl)-1-(2,2,2-trifluoroethyl)-1H-1,2,3-triazole-4-carboxamide]	30 nM
O=C(NCc1nnc(-c2ccccc2)s1)c1cn(C2(CF)CC2)nn1 [Example 151, 1-(1-(fluoromethyl)cyclopropyl)-N-((5-phenyl-1,3,4-thiadiazol-2-yl)methyl)-1H-1,2,3-triazole-4-carboxamide]	25 nM
N#CCn1cc(C(=O)NCc2nnc(-c3ccccc3)s2)nn1 [Example 74, 1-(cyanomethyl)-N-((5-phenyl-1,3,4-thiadiazol-2-yl)methyl)-1H-1,2,3-triazole-4-carboxamide]	14 nM
Cc1nc(O)ccc1-n1cc(C(=O)NCc2nnc(-c3ccccc3)s2)nn1 [Example 230, 1-(6-hydroxy-2-methylpyridin-3-yl)-N-((5-phenyl-1,3,4-thiadiazol-2-yl)methyl)-1H-1,2,3-triazole-4-carboxamide]	6 nM
C[C@H](CCF)n1cc(C(=O)NCc2nnc(-c3ccccc3)s2)nn1 [Example 170, (R)-1-(4-fluorobutan-2-yl)-N-((5-phenyl-1,3,4-thiadiazol-2-yl)methyl)-1H-1,2,3-triazole-4-carboxamide]	34 nM
O=C(NCc1nnc(-c2ccccc2)s1)c1cn([C@@H]2CO[C@H]3[C@@H]2OC[C@H]3O)nn1 [Example 30, 1-((3R,3aR,6R,6aR)-6-hydroxyhexahydrofuro[3,2-b]furan-3-yl)-N-((5-phenyl-1,3,4-thiadiazol-2-yl)methyl)-1H-1,2,3-triazole-4-carboxamide]	130 nM
O=C(NCc1nnc(-c2ccccc2)s1)c1cn([C@@H]2C[C@H]2CO)nn1 (single isomer, unassigned) [Example 141, Trans-1-(2-(hydroxymethyl)cyclopropyl)-N-((5-phenyl-1,3,4-thiadiazol-2-yl)methyl)-1H-1,2,3-triazole-4-carboxamide]	5 nM
Cc1ccc(-n2cc(C(=O)NCc3cc(-c4ccccn4)on3)nn2)c(C)n1 [Example 238, 1-(2,6-dimethylpyridin-3-yl)-N-((5-(pyridin-2-yl)isoxazol-3-yl)methyl)-1H-1,2,3-triazole-4-carboxamide]	76 nM
Cn1cc(C(=O)NCc2nnc(-c3ccc(O)cc3)s2)nn1 [Example 295, N-[[5-(4-hydroxyphenyl)-1,3,4-thiadiazol-2-yl]methyl]-1-methyl-triazole-4-carboxamide]	81 nM
Cc1ccc(-n2cc(C(=O)NCc3nnc(-c4ccncc4)s3)nn2)c(C)n1 [Example 265, 1-(2,6-dimethylpyridin-3-yl)-N-((5-(pyridin-4-yl)-1,3,4-thiadiazol-2-yl)methyl)-1H-1,2,3-triazole-4-carboxamide]	16 nM
Cc1nc(C(N)=O)ccc1-n1cc(C(=O)NCc2nnc(-c3ccccc3)s2)nn1 [Example 333, 6-methyl-5-(4-(((5-phenyl-1,3,4-thiadiazol-2-yl)methyl)carbamoyl)-1H-1,2,3-triazol-1-yl)picolinamide]	6 nM
CC(NC(=O)c1cn(C2CC2)nn1)c1nnc(-c2ccccc2)s1 (single isomer, unassigned) [Example 245, 1-cyclopropyl-N-(1-(5-phenyl-1,3,4-thiadiazol-2-yl)ethyl)-1H-1,2,3-triazole-4-carboxamide]	23 nM
O=C(NCc1nnc(-c2ccccc2)s1)c1cn(CCC2CCCO2)nn1 (centres unmarked) [Example 207, N-((5-phenyl-1,3,4-thiadiazol-2-yl)methyl)-1-(2-(tetrahydrofuran-2-yl)ethyl)-1H-1,2,3-triazole-4-carboxamide]	327 nM
Cc1cc(C(=O)NCc2nnc(-c3ccccc3)s2)c(C)n1C [Example 50, 1,2,5-trimethyl-N-[(5-phenyl-1,3,4-thiadiazol-2-yl)methyl]pyrrole-3-carboxamide]	537 nM
O=C(NCc1nnc(-c2ccccc2)s1)c1cn(C[C@H]2CCCO2)nn1 [Example 179, (R)-N-((5-phenyl-1,3,4-thiadiazol-2-yl)methyl)-1-((tetrahydrofuran-2-yl)methyl)-1H-1,2,3-triazole-4-carboxamide]	238 nM
Cc1n[nH]c(C(=O)NCc2nnc(-c3ccccc3)s2)c1C [Example 42, 3,4-dimethyl-N-((5-phenyl-1,3,4-thiadiazol-2-yl)methyl)-1H-pyrazole-5-carboxamide]	458 nM
CC(CC(F)(F)F)n1cc(C(=O)NCc2nnc(-c3ccccc3)s2)nn1 (single isomer, unassigned) [Example 64, N-((5-phenyl-1,3,4-thiadiazol-2-yl)methyl)-1-(4,4,4-trifluorobutan-2-yl)-1H-1,2,3-triazole-4-carboxamide]	93 nM
Cc1ccc(-n2cc(C(=O)NCc3ccc(-n4nccn4)nn3)nn2)c(C)n1 (single isomer, unassigned) [Example 344, N-((6-(2H-1,2,3-triazol-2-yl)pyridazin-3-yl)methyl)-1-(2,6-dimethylpyridin-3-yl)-1H-1,2,3-triazole-4-carboxamide]	67 nM
O=C(NCc1nnc(-c2ccncc2)s1)c1cn(CC(F)F)nn1 [Example 347, 1-(2,2-difluoroethyl)-N-((5-(pyridin-4-yl)-1,3,4-thiadiazol-2-yl)methyl)-1H-1,2,3-triazole-4-carboxamide]	7 nM
O=C(NCc1nnc(-c2ccccc2)s1)c1cn([C@@H]2C[C@H]2CO)nn1 (single isomer, unassigned) [Example 142, Trans-1-(2-(hydroxymethyl)cyclopropyl)-N-((5-phenyl-1,3,4-thiadiazol-2-yl)methyl)-1H-1,2,3-triazole-4-carboxamide]	33 nM
CC(C(N)=O)n1cc(C(=O)NCc2nnc(-c3ccccc3)s2)nn1 (single isomer, unassigned) [Example 319, 1-(1-amino-1-oxopropan-2-yl)-N-((5-phenyl-1,3,4-thiadiazol-2-yl)methyl)-1H-1,2,3-triazole-4-carboxamide]	8 nM
CN(C)C(=O)CCn1cc(C(=O)NCc2nnc(-c3ccccc3)s2)nn1 [Example 193, 1-(3-(dimethylamino)-3-oxopropyl)-N-((5-phenyl-1,3,4-thiadiazol-2-yl)methyl)-1H-1,2,3-triazole-4-carboxamide]	958 nM
O=C(NCc1nnc(-c2ccccc2)s1)c1cn(CC2COC2)nn1 [Example 157, 1-(oxetan-3-ylmethyl)-N-((5-phenyl-1,3,4-thiadiazol-2-yl)methyl)-1H-1,2,3-triazole-4-carboxamide]	11 nM
CC(C)(C(N)=O)n1cc(C(=O)NCc2nnc(-c3ccncc3)s2)nn1 [Example 320, 1-(1-amino-2-methyl-1-oxopropan-2-yl)-N-((5-(pyridin-4-yl)-1,3,4-thiadiazol-2-yl)methyl)-1H-1,2,3-triazole-4-carboxamide]	27 nM
Cc1cc(C(=O)NCc2nnc(-c3ccccc3)s2)ns1 [Example 260, 5-methyl-N-((5-phenyl-1,3,4-thiadiazol-2-yl)methyl)isothiazole-3-carboxamide]	69 nM
